Measurements published in patent publication US10961248B2, “Pesticidally active heterocyclic derivatives with sulfur containing substituents” (SYNGENTA PARTICIPATIONS AG, priority 2016, dated 2021).

Columns and labels:
Type in all cases: in vivo
[1] = test system: Myzus persicae (Green Peach Aphid); test: Example B3: activity against Myzus persicae, roots of pea seedlings in test solution; conditions: 144 h, test rate 24 ppm, roots of infested pea seedlings in test solution, 6 days
Experimental: Roots of pea seedlings infested with an aphid population of mixed ages were placed directly in the aqueous test solutions prepared from 10'000 DMSO stock solutions. The samples were assessed for mortality 6 days after placing seedlings in test solutions.

[2] = test system: Bemisia tabaci (Cotton White Fly); test: Example B5: activity against Bemisia tabaci, sprayed cotton leaf discs; conditions: foliar, 144 h, application rate 200 ppm, adult white flies, 6 days after incubation
Experimental: Cotton leaf discs were placed on agar in 24-well microtiter plates and sprayed with aqueous test solutions prepared from 10'000 ppm DMSO stock solutions. After drying the leaf discs were infested with adult white flies. The samples were checked for mortality 6 days after incubation.

[3] = test system: Spodoptera littoralis (Egyptian Cotton Leaf Worm); test: Example B7: activity against Spodoptera littoralis, sprayed cotton leaf discs; conditions: foliar, 72 h, application rate 200 ppm, L1 larvae, 3 days after infestation
Experimental: Cotton leaf discs were placed onto agar in 24-well microtiter plates and sprayed with aqueous test solutions prepared from 10'000 ppm DMSO stock solutions. After drying the leaf discs were infested with five L1 larvae. The samples were assessed for mortality, anti-feeding effect, and growth inhibition in comparison to untreated samples 3 days after infestation. Control of Spodoptera littoralis by a test sample is given when at least one of the categories mortality, anti-feedant effect, and growth inhibition is higher than the untreated sample.

[4] = test system: Plutella xylostella (Diamond Back Moth); test: Example B1: activity against Plutella xylostella, artificial diet in 24-well plates; conditions: 120 h, application rate 200 ppm, L2 larvae on artificial diet, 5 days after infestation, read-out: effect in at least one of the two categories (mortality or growth inhibition)
Experimental: (§1) 24-well microtiter plates with artificial diet were treated with aqueous test solutions prepared from 10'000 ppm DMSO stock solutions by pipetting. After drying, the plates were infested with L2 larvae (10 to 15 per well). The samples were assessed for mortality and growth inhibition in comparison to untreated samples 5 days after infestation.

[5] = test system: Myzus persicae (Green Peach Aphid); test: Example B2: activity against Myzus persicae, sprayed sunflower leaf discs; conditions: foliar, 144 h, application rate 200 ppm, aphid population of mixed ages, 6 days after infestation
Experimental: (§2) Sunflower leaf discs were placed on agar in a 24-well microtiter plate and sprayed with aqueous test solutions prepared from 10'000 ppm DMSO stock solutions. After drying, the leaf discs were infested with an aphid population of mixed ages. The samples were assessed for mortality 6 days after infestation.

[6] = test system: Frankliniella occidentalis (Western Flower Thrips); test: Example B4: activity against Frankliniella occidentalis, sprayed sunflower leaf discs; conditions: foliar, 168 h, application rate 200 ppm, population of mixed ages, 7 days after infestation
Experimental: as §2, with “in” for “in a”, “plates” for “plate”, “10'000” for “10'000 ppm”, “drying” for “drying,”, “a Frankliniella” for “an aphid”, “7” for “6”

[7] = test system: Euschistus heros (Neotropical Brown Stink Bug); test: Example B6: activity against Euschistus heros, sprayed soybean leaf; conditions: 120 h, application rate 200 ppm, N-2 nymphs, 5 days after infestation, read-out: effect in at least one of the two categories (mortality or growth inhibition)
Experimental: Soybean leaf on agar in 24-well microtiter plates were sprayed with aqueous test solutions prepared from 10'000 ppm DMSO stock solutions. After drying the leaf were infested with N-2 nymphs. The samples were assessed for mortality and growth inhibition in comparison to untreated samples 5 days after infestation.

[8] = test system: Diabrotica Balteata (Corn Root Worm); test: Example B7: activity against Diabrotica balteata, sprayed maize sprouts; conditions: 96 h, application rate 200 ppm, L2 larvae, 4 days after infestation, read-out: effect in at least one of the two categories (mortality or growth inhibition)
Experimental: as §1, with “Maize sprouts placed onto an agar layer in 24-well” for “24-well”, “plates” for “plates with artificial diet”, “spraying.” for “pipetting.”, “(6” for “(10”, “10” for “15”, “4” for “5”

CCS(=O)(=O)c1cc(N=S2(=O)CCC2)cnc1-c1cn2cnc(C(F)(F)F)cc2n1 [P13, 1-[[5-ethylsulfonyl-6-[7-(trifluoromethyl)imidazo[1,2-c]pyrimidin-2-yl]-3-pyridyl]imino]thietane 1-oxide]
≥ 80%: mortality at 24 ppm [1] | mortality at 200 ppm [2] | percent control (mortality, anti-feedant effect or growth inhibition) at 200 ppm [3] | percent effect (mortality or growth inhibition) at 200 ppm [4] | mortality at 200 ppm [5] | mortality at 200 ppm [6] | percent effect (mortality or growth inhibition) at 200 ppm [7]

CCS(=O)(=O)c1cc(N=S2(=O)CCCC2)cnc1-c1nc2cc(C(F)(F)F)ncc2n1C [P6, 1-[[5-ethylsulfonyl-6-[3-methyl-6-(trifluoromethyl)imidazo[4,5-c]pyridin-2-yl]-3-pyridyl]imino]thiolane 1-oxide]
≥ 80%: mortality at 24 ppm [1] | mortality at 200 ppm [2] | percent effect (mortality or growth inhibition) at 200 ppm [4] | mortality at 200 ppm [5] | mortality at 200 ppm [6] | percent effect (mortality or growth inhibition) at 200 ppm [7]

CCS(=O)(=O)c1cc(N=S2(=O)CCOCC2)cnc1-c1nc2cc(C(F)(F)F)ncc2n1C [P5, 4-[[5-ethylsulfonyl-6-[3-methyl-6-(trifluoromethyl)imidazo[4,5-c]pyridin-2-yl]-3-pyridyl]imino]-1,4-oxathiane 4-oxide]
≥ 80%: mortality at 24 ppm [1] | mortality at 200 ppm [2] | percent control (mortality, anti-feedant effect or growth inhibition) at 200 ppm [3] | percent effect (mortality or growth inhibition) at 200 ppm [4] | mortality at 200 ppm [5] | mortality at 200 ppm [6] | percent effect (mortality or growth inhibition) at 200 ppm [7]

CCS(CC)=Nc1cnc(-c2nc3cc(C(F)(F)F)ncc3n2C)c(S(=O)(=O)CC)c1 [P18]
≥ 80%: mortality at 200 ppm [5] | percent effect (mortality or growth inhibition) at 200 ppm [8] | percent effect (mortality or growth inhibition) at 200 ppm [7]

CCS(=O)(=O)c1cc(N=S2(=O)CCOCC2)cnc1-c1cn2cnc(C(F)(F)F)cc2n1 [P22, 4-[[5-ethylsulfonyl-6-[7-(trifluoromethyl)imidazo[1,2-c]pyrimidin-2-yl]-3-pyridyl]imino]-1,4-oxathiane 4-oxide]
≥ 80%: mortality at 24 ppm [1] | mortality at 200 ppm [2] | percent control (mortality, anti-feedant effect or growth inhibition) at 200 ppm [3] | percent effect (mortality or growth inhibition) at 200 ppm [4] | mortality at 200 ppm [5] | mortality at 200 ppm [6] | percent effect (mortality or growth inhibition) at 200 ppm [7]

CCS(=O)(=O)c1cc(N=S(C)(=O)C2CC2)cnc1-n1cc2cnc(C(F)(F)F)cc2n1 (stereo not drawn) [P12, cyclopropyl-[[5-ethylsulfonyl-6-[6-(trifluoromethyl)pyrazolo[4,3-c]pyridin-2-yl]-3-pyridyl]imino]-methyl-oxo-λ^6-sulfane]
≥ 80%: mortality at 200 ppm [2] | percent control (mortality, anti-feedant effect or growth inhibition) at 200 ppm [3] | percent effect (mortality or growth inhibition) at 200 ppm [4] | mortality at 200 ppm [5] | mortality at 200 ppm [6] | percent effect (mortality or growth inhibition) at 200 ppm [8] | percent effect (mortality or growth inhibition) at 200 ppm [7]

CCS(=O)(=O)c1cc(N=S(C)(C)=O)cnc1-n1cc2cnc(C(F)(F)F)cc2n1 [P16, [5-ethylsulfonyl-6-[6-(trifluoromethyl)pyrazolo[4,3-c]pyridin-2-yl]-3-pyridyl]imino-dimethyl-oxo-λ^6-sulfane]
≥ 80%: mortality at 24 ppm [1] | mortality at 200 ppm [2] | percent control (mortality, anti-feedant effect or growth inhibition) at 200 ppm [3] | percent effect (mortality or growth inhibition) at 200 ppm [4] | mortality at 200 ppm [5] | mortality at 200 ppm [6] | percent effect (mortality or growth inhibition) at 200 ppm [8] | percent effect (mortality or growth inhibition) at 200 ppm [7]

CCS(=O)(=O)c1cc(N=S(C)(=O)C2CC2)ccc1-c1cn2cnc(C(F)(F)F)cc2n1 (stereo not drawn) [P15, cyclopropyl-[3-ethylsulfonyl-4-[7-(trifluoromethyl)imidazo[1,2-c]pyrimidin-2-yl]phenyl]imino-methyl-oxo-λ^6-sulfane]
≥ 80%: percent effect (mortality or growth inhibition) at 200 ppm [4] | mortality at 200 ppm [5] | percent effect (mortality or growth inhibition) at 200 ppm [8] | percent effect (mortality or growth inhibition) at 200 ppm [7]

CCS(=O)(=O)c1cc(N=S(C)(=O)CC)cnc1-c1nc2cc(C(F)(F)F)ncc2n1C (stereo not drawn) [P19, ethyl-[[5-ethylsulfonyl-6-[3-methyl-6-(trifluoromethyl)imidazo[4,5-c]pyridin-2-yl]-3-pyridyl]imino]-methyl-oxo-λ^6-sulfane]
≥ 80%: mortality at 24 ppm [1] | mortality at 200 ppm [2] | percent effect (mortality or growth inhibition) at 200 ppm [4] | mortality at 200 ppm [5] | mortality at 200 ppm [6] | percent effect (mortality or growth inhibition) at 200 ppm [8] | percent effect (mortality or growth inhibition) at 200 ppm [7]

CCS(=O)(=O)c1cc(N=S2(=O)CCOCC2)ccc1-c1nc2cc(C(F)(F)F)ncc2n1C [P21, 4-[3-ethylsulfonyl-4-[3-methyl-6-(trifluoromethyl)imidazo[4,5-c]pyridin-2-yl]phenyl]imino-1,4-oxathiane 4-oxide]
≥ 80%: mortality at 24 ppm [1] | mortality at 200 ppm [2] | percent effect (mortality or growth inhibition) at 200 ppm [7]

CCS(=O)(=O)c1cc(N=S(C)(C)=O)ccc1-c1cn2cnc(C(F)(F)F)cc2n1 [P14, [3-ethylsulfonyl-4-[7-(trifluoromethyl)imidazo[1,2-c]pyrimidin-2-yl]phenyl]imino-dimethyl-oxo-λ^6-sulfane]
≥ 80%: mortality at 24 ppm [1] | mortality at 200 ppm [2] | percent effect (mortality or growth inhibition) at 200 ppm [4] | mortality at 200 ppm [5] | percent effect (mortality or growth inhibition) at 200 ppm [7]

CCS(=O)(=O)c1cc(N=S(C)(=O)C2CC2)cnc1-c1cn2cnc(C(F)(F)F)cc2n1 (stereo not drawn) [P8, cyclopropyl-[[5-ethylsulfonyl-6-[7-(trifluoromethyl)imidazo[1,2-c]pyrimidin-2-yl]-3-pyridyl]imino]-methyl-oxo-λ^6-sulfane]
≥ 80%: mortality at 24 ppm [1] | mortality at 200 ppm [2] | percent control (mortality, anti-feedant effect or growth inhibition) at 200 ppm [3] | percent effect (mortality or growth inhibition) at 200 ppm [4] | mortality at 200 ppm [5] | mortality at 200 ppm [6] | percent effect (mortality or growth inhibition) at 200 ppm [8] | percent effect (mortality or growth inhibition) at 200 ppm [7]

CCS(=O)(=O)c1cc(N=S(C)(C)=O)cnc1-c1cn2cnc(C(F)(F)F)cc2n1 [P1, [5-ethylsulfonyl-6-[7-(trifluoromethyl)imidazo[1,2-c]pyrimidin-2-yl]-3-pyridyl]imino-dimethyl-oxo-λ^6-sulfane]
≥ 80%: mortality at 24 ppm [1] | mortality at 200 ppm [2] | percent control (mortality, anti-feedant effect or growth inhibition) at 200 ppm [3] | percent effect (mortality or growth inhibition) at 200 ppm [4] | mortality at 200 ppm [5] | mortality at 200 ppm [6] | percent effect (mortality or growth inhibition) at 200 ppm [7]

CCSc1cc(N=S(C)(C)=O)cnc1-c1nc2cc(C(F)(F)F)ncc2n1C [P20, [5-ethylsulfanyl-6-[3-methyl-6-(trifluoromethyl)imidazo[4,5-c]pyridin-2-yl]-3-pyridyl]imino-dimethyl-oxo-λ^6-sulfane]
≥ 80%: mortality at 24 ppm [1] | mortality at 200 ppm [5] | mortality at 200 ppm [6] | percent effect (mortality or growth inhibition) at 200 ppm [8] | percent effect (mortality or growth inhibition) at 200 ppm [7]

CCS(=O)(=O)c1cc(N=S(C)C)cnc1-c1nc2cc(C(F)(F)F)ncc2n1C [P17, [5-ethylsulfonyl-6-[3-methyl-6-(trifluoromethyl)imidazo[4,5-c]pyridin-2-yl]-3-pyridyl]imino-dimethyl-λ^4-sulfane]
≥ 80%: mortality at 200 ppm [5] | percent effect (mortality or growth inhibition) at 200 ppm [8] | percent effect (mortality or growth inhibition) at 200 ppm [7]
